Experimental data from patent publication US12667584B2, “Adenosine analog and its use in regulating the circadian clock” (NATIONAL INSTITUTE OF BIOLOGICAL SCIENCES, BEIJING, priority 2017, dated 2026).
Read-outs that look alike come from different tables or passages of the source.

How the values were obtained:
Per2:luc U2OS cells = assay: Real-time monitoring of circadian oscillation in lumicycle, Per2:luc U2OS cells; assay type: cell-based, human; conditions: for effect on the clock phase: in words
Experimental: Cell culture, drug treatment and Real-Time Monitoring of Circadian Oscillations: Per2-Luc reporter U2OS cells (D15) and Bmal1-Luc reporter U2OS cells (C26) cells were kept in DMEM medium (Gibco), supplemented with 10% FBS (Gibco) and 1% penicillin streptomycin mixture (Gibco). For Circadian Oscillation monitored with lumicycle (Actimetrics), cells were seeded at the density of 10^6 per 3.5 cm dish (Z688851-30EA). The medium was changed into XM medium (PH7.2, 10 mM HEPES, 350 mg/I bicarbonate, 1×B27, 100 IU/ml penicillin, 100 μg/ml streptomycin, 10 μg/ml gentamycin, and 100 μM d-Luciferin) 2 days after cell seeding. 3.5 cm dish was then sealed with high-vacuum grease (Dow Corning) and microscope cover glass, and transferred into lumicycle which was placed in an incubator (37° C.). For Drug treatment, 3.5 cm dish was taken out from lumicycle quickly at indicated time. After chemical was added into the medium, the dish was sealed again and put back into lumicycle. For Circadian Oscillation monitored with Tecan (Perkinelmer), cells were seeded at the density of […] per well for 384-well plate (CLS3610-48EA). 2 days later, the medium was changed into premixed XM medium with different chemicals with or without pentostatin (5 μg/ml). The plate was then sealing with sealing film (Sangon Biotech) and put into Tecan. Data from cells were collected in the Tecan luminometer at 37° C. for 5˜7 days.
The inventors conducted a chemical screen using the human osteosarcoma U2OS cell line so as to discover small molecules that modify the phase of the intracellular clock in mammals. In the primary screen, the inventors used two reporter lines of U2OS harboring a luciferase gene under control of either Per2 or Bmal1 promoter (named Per2-dLuc or Bmal1-dLuc cells), and set the threshold for at least 6 h phase-changes with no apparent amplitude-reduction in both cell lines. […] An institutional pilot chemical library consisting of approximately 10,000 small molecules was applied in this study. […] The inventors set to allow a free-run of the clock before administration of the compound over the course in order to eliminate the possibility that this phase-changing phenomenon was due to a combinative phenotype of medium-change plus the compound effect.
Circadian clock is a transcriptional based feedback loop, however different clock genes contain different cis-element and may show different response to the same stimulation. […] Since the close similar structure with adenosine and potential function of inhibiting transcription by preventing mRNA elongation, we tested whether adenosine and other deoxynucleoside could shift circadian phase. […] Therefore we further tested whether cordycepin utilize adenosine transporter to enter cell or utilize adenosine deaminase to degrade.
One prominent character of zeitgeiber is phase dependent function. Therefore, we further tested whether cordycepin also has the character.

C57BL/6j mice = assay: Wheel running jet-lag experiment, 8 h phase advance or delay; assay type: in vivo, mouse; conditions: for With Pentostadin Cell Assay: Dose effect: 15 mg/kg
Experimental: Wheel running experiment: Male C57Bj/6 mice at 7 w old were purchased from the Nanjing Biomedical Research Institute of Nanjing University introduced from Jackson Laboratory, housed in individually wheel-running cage in a temperature- and humidity-controlled SPF facility, with ad libitum access to food and water. The animals were entrained under 12 h light/dark photoperiod for two weeks to synchronize the endogenous circadian clock of the mice to the ambient light-dark cycle, light intensity is about 50˜100 lux. After synchronization, light-dark cycles were 8-hr phase-advanced or phase-delayed. On the day of light-dark cycle was shifted advance, mice were firstly fasted at CT 3, then 15 mg/kg bw CA03, 15 and 30 mg/kg bw pro-CA03, 15 and 30 mg/kg bw pro-CA04 or DMSO were intraperitoneal injection at CT 12, and light on time (CT 0) was shifted from 7 am to 11 pm), finally re-feed and inject drug again at CT 23 of the old light-dark cycle. CA03 and pro-CA04 were firstly dissolved in DMSO to the concentration of 200 μg/μl, then dilute with saline to the final concentration of 1000 μg/ml for intraperitoneal injection. Pro-03 was firstly dissolved in DMSO to the concentration of 200 μg/μl, then dilute with 2% tween80 (in sterilized water) to the final concentration of 1000 μg/ml for intraperitoneal injection. On the day of light-dark cycle was shifted delayed, mice were firstly fasted at ZT 3, then 15 mg/kg bw CA03, 15 and 30 mg/kg bw pro-CA03, 15 and 30 mg/kg bw pro-CA04 or DMSO were intraperitoneal injection at CT 12, and light off time (CT12) was shifted from […] to 3 am), finally re-feed and inject drug again at CT 23 of the old light-dark cycle. Locomotor activity was recorded in 10-min bins wheel running (Actimetrics), and the data obtained were analysed with Clocklab software (Actimetrics). All animal experimental procedures were performed in accordance with the protocol approved by the Institutional Animal Care and Usage Committee (IACUC) of the National Institute of Biological Sciences, Beijing.
Under a standard jet-lag protocol {Yamaguchi, 2013}, wild-type C57BL/6j mice usually take ˜10 d to adapt to 8 h phase advance. […] Similarly, the drug treated mice adapt faster to the phase delay (FIG. 2D&2E).
To test whether cordycepin function in vivo, we firstly tested luciferase signal level by live imaging of Per2:LUC mice after intraperitoneal injection of 15 mg/kg cordycepin or DMSO. We found cordycepin induce more than 4 folds increase of luciferase signal in liver when compared with DMSO control (A). […] We also reconfirmed endogenous transcription rate of core clock genes by measuring the pre-mRNA with qPCR in the liver (B). We examined RRE genes (including Bmal1, Clock, Npas2, Cry1 and Nfil3), internal control genes (including Gapdh, Tbp and Actin) and E-box genes (including Per1, Per2, Dbp and Nr1d1). We designed at least 2 primers for each gene. […] Prior evaluation the jet-leg cure ability of cordycepin, we detected whether cordycepin and it's prodrug pro-CA03 can penetrate BBB. We injected cordycepin or pro-CA03 via tail vein and time course sampled CSF and analyzed cordycepin pro-CA03 level with HPLC-MASS method. […] Finally we evaluated the jet-leg cure ability of cordycepin, pro-CA03 and Pro-CA04 with mice behavioral experiment. Wild-type C57BL/6j mice typically take ˜10 days to adapt to an 8 h phase advance. […]

[1] = tested on: Per2-Luc reporter U2OS cells (D15); assay: Circadian phase shift cell assay in D15 cells, 384 well plate, Tecan, with or without pentostatin; assay type: cell-based, human; conditions: for minimal effective concentration: without pentostatin, read-out: Cell Assay; for minimal effective concentration / With Pentostadin Cell Assay: concentration that shifts the circadian phase; for With Pentostadin Cell Assay: pentostatin 5 μg/ml
[2] = under the concentration of 100 μM

Nc1ncnc2c1ccn2[C@@H]1O[C@H](CO)[C@@H](O)[C@H]1O [7-deazaadenosine, tubercidin]
effect on the clock phase (Per2:luc U2OS cells): can shift circadian phase

OC[C@H]1O[C@@H](n2cnc3c2NC=NC[C@H]3O)C[C@@H]1O [pentostatin]
effect on the clock phase (Per2:luc U2OS cells): does not affect the clock phase
effect on the clock phase (Per2:luc U2OS cells; listed as Pentostatin): does not affect the clock at all

Nc1ncnc2c1ncn2[C@@H]1O[C@H](CO)[C@H](O)[C@H]1O [(3′R)-adenosine, 3′-(R)-adenosine]
effect on the clock phase (Per2:luc U2OS cells): can shift circadian phase

CCCCCCCC(=O)Nc1ncnc2c1ncn2[C@@H]1O[C@H](CO)[C@H](O)[C@H]1O [Pro-CA04, N-octanoyl-9-(P-D-xylofuranosyl)-adenine]
adaption time after 8 phase advance (C57BL/6j mice; DMSO 10 days): ~5 days

Nc1ncnc2c1ncn2[C@@H]1O[C@H](CO)[C@@H](O)[C@H]1O [adenosine]
effect on phase effect induced by cordycepin (Per2:luc U2OS cells; excessive amount): inhibits the phase effect induced by cordycepin
effect on the clock phase (Per2:luc U2OS cells): not

Nc1nccc2c1ncn2[C@@H]1O[C@H](CO)[C@@H](O)[C@H]1O [3-deazaadenosine, 3-Deazaadenosine]
effect on the clock phase (Per2:luc U2OS cells): can shift circadian phase

Nc1ncnc2c1c(F)cn2[C@@H]1O[C@H](CO)[C@H](O)[C@H]1O
minimal effective concentration ([1]; Homo sapiens, U2OS): > 500 µM
With Pentostadin Cell Assay [1]: 100 µM

[2H]c1nc(N)c2nc([2H])n([C@@H]3O[C@H](CO)C[C@H]3O)c2n1
minimal effective concentration ([1]; Homo sapiens, U2OS): 25 µM
With Pentostadin Cell Assay [1]: 12.5 µM

CCCCCCCC(=O)Nc1ncnc2c1ncn2[C@@H]1O[C@H](CO)[C@H](O)[C@H]1O [drawing 329]
With Pentostadin Cell Assay: Dose effect (C57BL/6j mice): Dose effect (15 mg/kg)

Nc1ncnc2c1ccn2[C@@H]1OC[C@@H](O)[C@H](O)[C@H]1O
minimal effective concentration ([1]; Homo sapiens, U2OS): 100 µM

Nc1ncnc2c1ncn2[C@@H]1O[C@H]([C@H](O)CO)[C@H](O)[C@H]1O
minimal effective concentration ([1]; Homo sapiens, U2OS): > 500 µM
With Pentostadin Cell Assay [1]: 200 µM

CC1(CCC(=O)O[C@@H]2[C@@H](O)[C@H](n3cnc4c(N)ncnc43)O[C@@H]2COC(=O)CCCC(=O)NCCCOCCOCCOCCCNC(=O)CCCC[C@H]2SC[C@H]3NC(=O)N[C@H]32)N=N1
minimal effective concentration ([1]; Homo sapiens, U2OS): > 500 µM
With Pentostadin Cell Assay [1]: 100 µM

Nc1ncnc2c1c(Br)c(Br)n2[C@@H]1O[C@H](CO)C[C@H]1O
minimal effective concentration ([1]; Homo sapiens, U2OS): > 500 µM
With Pentostadin Cell Assay [1]: 100 µM

Nc1ncnc2c1ccn2[C@@H]1O[C@H](CO)C(O)C1O (stereo partly shown) [drawing 318]
With Pentostadin Cell Assay [1]: 25 µM

COc1cc2c(N)ncnc2n1[C@@H]1O[C@H](CO)[C@H](O)[C@H]1O
minimal effective concentration ([1]; Homo sapiens, U2OS): > 500 µM
With Pentostadin Cell Assay [1]: 100 µM

Nc1ncnc2c1ncn2[C@@H]1O[C@H](COP(=O)(O)OP(=O)(O)OP(=O)(O)O)CC1O (stereo partly shown)
minimal effective concentration ([1]; Homo sapiens, U2OS): 100 µM

Nc1ncnc2c1ncn2[C@@H]1O[C@H](CO)CC1O (stereo partly shown)
minimal effective concentration ([1]; Homo sapiens, U2OS): 25 µM
With Pentostadin Cell Assay [1]: 0.5 µM

OC[C@H]1O[C@@H](n2cnc3c(NCc4ccccc4)ncnc32)C(O)C1O (stereo partly shown)
minimal effective concentration ([1]; Homo sapiens, U2OS): 10 µM
With Pentostadin Cell Assay [1]: 10 µM

O=C(CCCC[C@@H]1SC[C@@H]2NC(=O)N[C@@H]21)Nc1ncnc2c1ncn2[C@@H]1O[C@H](CO)CC1O (stereo partly shown) [drawing 315]
minimal effective concentration [1]: 200 µM

Nc1ncnc2c1ncn2[C@@H]1O[C@H](CO)C2OC21 (stereo partly shown)
minimal effective concentration ([1]; Homo sapiens, U2OS): 3 µM

Nc1ncnc2c1ncn2[C@@H]1O[C@H](COC(=O)CCCC[C@@H]2SC[C@@H]3NC(=O)N[C@@H]32)C(O)C1O (stereo partly shown)
minimal effective concentration ([1]; Homo sapiens, U2OS): > 500 µM
With Pentostadin Cell Assay [1]: 2 µM

Nc1ncnc2c1cc(Br)n2[C@@H]1O[C@H](CO)[C@H](O)[C@H]1O
minimal effective concentration ([1]; Homo sapiens, U2OS): > 500 µM
With Pentostadin Cell Assay [1]: 100 µM

Nc1ncnc2c1c(Br)c(Br)n2[C@@H]1O[C@H](CO)[C@H](O)[C@H]1O
minimal effective concentration ([1]; Homo sapiens, U2OS): > 500 µM
With Pentostadin Cell Assay [1]: 100 µM

Cc1cccc(Cc2nn(C(C)(C)C)c3ncnc(N)c23)c1
minimal effective concentration ([1]; Homo sapiens, U2OS): 10 µM

CCCCCCCC(=O)Nc1ncnc2c1ncn2[C@@H]1O[C@H](CO)C[C@H]1O
With Pentostadin Cell Assay: Dose effect (C57BL/6j mice): Dose effect (15 mg/kg)

Nc1ncnc2c1c(F)c(Br)n2[C@@H]1O[C@H](CO)[C@H](O)[C@H]1O
minimal effective concentration ([1]; Homo sapiens, U2OS): > 500 µM
With Pentostadin Cell Assay [1]: 100 µM

OC[C@H]1O[C@@H](n2cnc3c(Cl)cc(Cl)nc32)C(O)C1O (stereo partly shown)
minimal effective concentration ([1]; Homo sapiens, U2OS): 100 µM

OC[C@H]1O[C@@H](n2cnc3cc(Cl)c(Cl)cc32)C(O)C1O (stereo partly shown) [drawing 289]
minimal effective concentration ([1]; Homo sapiens, U2OS): 10 µM
With Pentostadin Cell Assay [1]: 10 µM

Nc1ncnc2c1ncn2[C@@H]1O[C@H](CO)C(O)C1OC(=O)CCCC[C@@H]1SC[C@@H]2NC(=O)N[C@@H]21 (stereo partly shown)
minimal effective concentration ([1]; Homo sapiens, U2OS): > 500 µM
With Pentostadin Cell Assay [1]: 2 µM

Nc1ncnc2c1c(Br)cn2[C@@H]1O[C@H](CO)C[C@H]1O [drawing 349]
minimal effective concentration ([1]; Homo sapiens, U2OS): > 500 µM
With Pentostadin Cell Assay [1]: 100 µM

[N-]=[N+]=NC[C@@H]1CC(O)[C@H](n2cnc3c(N)ncnc32)O1 (stereo partly shown)
minimal effective concentration ([1]; Homo sapiens, U2OS): 500 µM
With Pentostadin Cell Assay [1]: 25 µM

O=P(O)(O)OP(=O)(O)OP(=O)(O)OC[C@H]1O[C@@H](n2cnc3c(NCc4ccccc4)ncnc32)[C@H](O)[C@@H]1O
minimal effective concentration ([1]; Homo sapiens, U2OS): 10 µM

Nc1ncnc2c1c(Br)cn2[C@@H]1O[C@H](CO)C[C@H]1O [NQZ-194]
amplitude effect, Per2:luc signal versus control [1, 2]: more than two fold of control

Nc1ncnc2c1c(Br)cn2[C@@H]1O[C@H](CO)[C@H](O)[C@H]1O [NQZ-168]
period effect [1, 2]: elongation period effect
